# Source: patent US20230135317A1, “COSMETIC FORMULATION FOR TOPICAL ADMINISTRATION COMPRISING NOVEL PEPTIDES THAT IMPROVE APPEARANCE AND REGENERATION OF SKIN” (ASC REGENITY LTD., priority 2020, published 2023)
# No end group written: not given here.
# Experiments:
# facial skin = assay: Nine-month long-term study 2 (stem cell homeostasis module peptides); format: in vivo, human; details: nine months; peptide tested with the other modules of TFC8-D; carrier in SEQ ID NO: 3 and 4 is PEG 35 kDa; sequence difference p-value <5%
# [1] = clinical phase III (Gunter & MacHens, 2012); cited from earlier work
Molecule,frequency of reported product performance decline (comparison) (facial skin),clinical outcome [1]
"(Z1)-LNPSECPKTVLGAEYGKTLDASYSTAEAENHVRL (not fully specified (N-terminus); printed as (Z1)-LNPSECPKTVLGAEYGKTLDASYSTAEAENHVRL) [SEQ ID NO: 3, Z1 carrier at N-terminus; as tested a polyethyleneglycol with a molecular weight of 35 kDa]",lower for SEQ ID NO: 3 than for SEQ ID NO: 1,–
"LNPSECPKTVLGASTSTLDASYSTAEAENHVRL (peptide that stimulates the Wnt beta-catenin signaling pathway) [SEQ ID NO: 2, peptide that stimulates Wnt/β-catenin signalling]",more strongly associated with a decline in product performance during the study period than the sequence of SEQ ID NO: 1,–
"Z1-LNPSECPKTVLGASTSTLDASYSTAEAENHVRL (not fully specified (N-terminus); printed as Z1-LNPSECPKTVLGASTSTLDASYSTAEAENHVRL) [SEQ ID NO: 4, Z1 carrier at N-terminus; as tested a polyethyleneglycol with a molecular weight of 35 kDa]",lower for SEQ ID NO: 4 than for SEQ ID NO: 2,–
"Juvista: TGF beta 3 drug (protein, UniProt P10600 301-412, looked up, Transforming growth factor beta-3, TGF beta 3 drug) Transforming growth factor …: ALDTNYCFRNLEENCCVRPLYIDFRQDLGWKWVHEPKGYYANFCSGPCPYLRSADTTHSTVLGLYNTLNPEASASPCCVPQDLEPLTILYYVGRTPKVEQLSNMVVKSCKCS",–,failure of a clinical phase III study
